Data on 34 molecules can be found in article PMC4890880 (ACS infectious diseases, 2016).

Where two headings read alike, the source gives them in different places.

The test system of test [1] is HepG2-A16-CD81EGFP cells. Description: cells. The note with it: Homo sapiens; for IC50: HepG2, read-out: Tox IC50; for inhibition at 50 µM: HepG2, read-out: Tox max inhibition (%) @ 50 uM.
For test [2], the system named is Plasmodium berghei (Pb-Luc) exoerythrocytic-stage parasites. Description: microbe, parasite or virus in culture. The note with it: for IC50: read-out: PbLuc IC50, dose response, 1/3 dilutions, max conc. 10 or 50 uM, unit inferred.
Setting [3] is: HepG2, read-out: HepG2 Tox% @ 50 uM rep1.
[4] abbreviates: HepG2, read-out: HepG2 Tox% @ 50 uM rep2.
Setting [5] is: read-out: Inhibition% @ 50 uM rep1.
[6] abbreviates: read-out: Inhibition% @ 50 uM rep2.
Setting [7] is: read-out: PbLuc max inhibition (%) @ 50 uM.

With `Cc1[nH]c(-c2ccc(F)cc2)cc1C(=O)NC1CCN(Cc2ccccc2)CC1` [MMV019738], the cytotoxicity at 50 µM in test [1] (setting [3]) is 97%; in test [1] (setting [4]), 98%. Besides, the inhibition at 50 µM amounted to 103% in test [2] (setting [5]) and 102% in test [2] (setting [6]).
Consider `Cc1ccc(C)c(Cn2c(N3CCC(C(=O)NCc4cccs4)CC3)nc3ccccc32)c1` [MMV019741], for which, in test [1] (setting [3]), the cytotoxicity at 50 µM worked out at 98%. Moreover, the inhibition at 50 µM was 103% in test [2] (setting [5]) and 104% in test [2] (setting [6]).
Consider `Cc1ccc(Cl)cc1N1CCN(CCCNC(=O)C2CCN(c3nc4ccccc4[nH]3)CC2)CC1` [MMV019746], for which the cytotoxicity at 50 µM came to 100% in test [1] (setting [3]) and 101% in test [1] (setting [4]). Further, the values for the inhibition at 50 µM in test [2] (setting [5]) and in test [2] (setting [6]) were 103% and 105%, respectively.
As for `Cc1cc(C)c2nc(N3CCC(C(=O)NCCCN4CCC(N5CCCCC5)CC4)CC3)sc2c1` [MMV019780], the cytotoxicity at 50 µM in test [1] (setting [3]) and in test [1] (setting [4]) was 98% in each case. The inhibition at 50 µM in test [2] (setting [5]) and in test [2] (setting [6]) was 101% each time.
In the case of `O=C(NC1CCN(Cc2ccccc2)CC1)c1cc(C(=O)NC2CCN(Cc3ccccc3)CC2)cc(C(=O)NC2CCN(Cc3ccccc3)CC2)c1` [MMV019881], in test [1] (setting [3]), the cytotoxicity at 50 µM is 101%. Moreover, the IC50 in test [1] was > 50 µM; in test [2], 14.7 µM. Moreover, the inhibition at 50 µM in test [1] is 60%; in test [2] (setting [5]) it was 104%; in test [2] (setting [6]), 104%; in test [2] (setting [7]), 94%.
For the molecule `Clc1cc(Br)ccc1-c1ccc(CNCC2CCNCC2)o1` [MMV019918], the values for the cytotoxicity at 50 µM in test [1] (setting [3]) and in test [1] (setting [4]) were 97% and 99%, respectively. The IC50 in test [1] is 15.6 µM; in test [2], 8.14 µM. The inhibition at 50 µM in test [1] came to 100%; in test [2] (setting [5]) it was 103%; in test [2] (setting [6]), 105%; in test [2] (setting [7]) it was 99%.
Turning to `O=C(NCCCN1CCC(N2CCCCC2)CC1)C1=Cc2cc(Br)ccc2OC1` [MMV019995], the cytotoxicity at 50 µM in test [1] (setting [3]) turned out to be 100%. Moreover, the inhibition at 50 µM in test [2] (setting [5]) and in test [2] (setting [6]) was 102% throughout.
With `Cc1cc(N(C)C)nc(Nc2ccc(NC(=O)Nc3ccccc3)cc2)n1` [MMV020243], the cytotoxicity at 50 µM in test [1] (setting [3]) turned out to be 96%. For the same molecule, the results for the IC50 in test [1] and in test [2] were 15.7 µM and 1.45 µM, respectively. The inhibition at 50 µM amounted to 100% in test [1], 96% in test [2] (setting [5]), 99% in test [2] (setting [6]) and 100% in test [2] (setting [7]).
Regarding `Cc1ccc(-c2nc3ccccc3o2)cc1NCc1cc(Cc2ccccc2)ccc1O` [MMV020912], the cytotoxicity at 50 µM in test [1] (setting [3]) came out at 13%. Further, the inhibition at 50 µM in test [2] (setting [5]) stood at 75%; in test [2] (setting [6]) it was 76%.
In the case of `COc1cc2c(cc1OC)C1=NNC(=O)C1=NC(C)(C)C2` [MMV084940], the cytotoxicity at 50 µM in test [1] (setting [3]) worked out at 99%; in test [1] (setting [4]), 100%. Besides, the values for the IC50 in test [1] and in test [2] were 31.3 µM and 4.02 µM, respectively. Besides, the inhibition at 50 µM is 94% in test [1], 103% in test [2] (setting [5]), 102% in test [2] (setting [6]) and 99% in test [2] (setting [7]).
In the case of `COc1ccccc1N=C1C(=O)c2ccccc2C(O)=C1N1CCCCC1` [MMV085203], the cytotoxicity at 50 µM in test [1] (setting [3]) amounted to 94%; in test [1] (setting [4]), 97%. Moreover, the IC50 in test [1] was found to be 3.13 µM; in test [2], 0.564 µM. Also, the inhibition at 50 µM in test [1] came out at 96%; in test [2] (setting [5]) it was 103%; in test [2] (setting [6]), 105%; in test [2] (setting [7]) it was 100%.
Turning to `Cc1ccc(C(=O)c2oc3ccc4c(C)cc(=O)oc4c3c2C)cc1` [MMV086103], in test [1] (setting [3]), the cytotoxicity at 50 µM came out at 40%. Further, the inhibition at 50 µM in test [2] (setting [5]) and in test [2] (setting [6]) was 103% each time.
In the case of `CC(C)(C)c1ccc(C(=O)Nc2nc3ccccc3s2)cc1` [MMV142383], the cytotoxicity at 50 µM in test [1] (setting [3]) came to 89%; in test [1] (setting [4]), 96%. The inhibition at 50 µM was found to be 103% in test [2] (setting [5]) and 105% in test [2] (setting [6]).
Taken in the same sequence, the figures for `COc1ccc2nc(C)cc(Nc3ccccc3O)c2c1` [MMV274073] were 59%, 88%, 100% and 100%.
Taken in the same sequence, the figures for `CCn1nc(-c2ccc(C(=O)OC)cc2)nc2c(=O)n(C)c(=O)nc1-2` [MMV306025] were 99%, 101%, 104% and 105%.
As to `CCOc1c(Cl)cc(CNCC(O)c2ccccc2)cc1OC` (stereo not shown) [MMV396632], the cytotoxicity at 50 µM in test [1] (setting [3]) is 82%; in test [1] (setting [4]), 76%. Further, the inhibition at 50 µM came to 99% in test [2] (setting [5]) and 96% in test [2] (setting [6]).
For the molecule `CCOc1cc(CNC(C)C(O)c2ccccc2)cc(Cl)c1OCC` (stereo not shown) [MMV396633], the cytotoxicity at 50 µM came to 98% in test [1] (setting [3]) and 99% in test [1] (setting [4]). The figures for the inhibition at 50 µM in test [2] (setting [5]) and in test [2] (setting [6]) were 101% and 102%, respectively.
On to `Cc1sc(NC(=O)c2ccco2)c(C(c2cccnc2)N2CCC(Cc3ccccc3)CC2)c1C` (stereo not shown) [MMV396663], for which the cytotoxicity at 50 µM in test [1] (setting [3]) is 82%. Moreover, the inhibition at 50 µM in test [2] (setting [5]) and in test [2] (setting [6]) was 103% in each case.
As to `CCOC(=O)c1c(C)n(-c2ccccc2)c2ccc(OC(=O)c3cc(OC)c(OC)c(OC)c3)cc12` [MMV396664], the cytotoxicity at 50 µM in test [1] (setting [3]) was determined as 61%. Also, the values for the inhibition at 50 µM in test [2] (setting [5]) and in test [2] (setting [6]) were 100% and 101%, respectively.
`COc1cc(C(=O)Nc2nc3c(cc4c5c(cccc53)CC4)s2)cc(OC)c1OC` [MMV396665]: the cytotoxicity at 50 µM in test [1] (setting [3]) came to 11%. Further, the inhibition at 50 µM turned out to be 76% in test [2] (setting [5]) and 80% in test [2] (setting [6]).
Turning to `O=C(NCC(c1ccsc1)N1CCCCCC1)c1ccc(C(F)(F)F)cc1` (stereo not shown) [MMV396672], the cytotoxicity at 50 µM came to 98% in test [1] (setting [3]) and 99% in test [1] (setting [4]). Besides, the inhibition at 50 µM in test [2] (setting [5]) and in test [2] (setting [6]) was 104% throughout.
As for `O=C(CSc1nccn2nc(-c3ccccc3)cc12)Nc1cc(C(F)(F)F)ccc1Cl` [MMV396678], the cytotoxicity at 50 µM in test [1] (setting [3]) is -13%; in test [1] (setting [4]), -3%. Also, the inhibition at 50 µM in test [2] (setting [5]) was 68%; in test [2] (setting [6]) it was 82%.
With `C[n+]1c2ccccc2nc2ccc(NCCO)cc21` [MMV396693], the cytotoxicity at 50 µM in test [1] (setting [3]) was determined as 81%; in test [1] (setting [4]), 93%. The inhibition at 50 µM is 102% in test [2] (setting [5]) and 104% in test [2] (setting [6]).
Consider `CCN(CC)CCNc1ncnc2c1[nH]c1ccc(Cl)cc12` [MMV396703], for which the cytotoxicity at 50 µM in test [1] (setting [3]) came out at 95%; in test [1] (setting [4]) it was 98%. For the same molecule, the inhibition at 50 µM in test [2] (setting [5]) turned out to be 103%; in test [2] (setting [6]), 106%.
Consider `CN1CCN(c2ncnc3c2[nH]c2ccc(Cl)cc23)CC1` [MMV396704], for which the cytotoxicity at 50 µM in test [1] (setting [3]) stood at 32%. The inhibition at 50 µM is 99% in test [2] (setting [5]) and 101% in test [2] (setting [6]).
`COc1cccc(Cn2c(Oc3ccccc3)nc3c2c(=O)n(C)c(=O)n3C)c1` [MMV396705]: the cytotoxicity at 50 µM in test [1] (setting [3]) worked out at 47%. Besides, the inhibition at 50 µM in test [2] (setting [5]) and in test [2] (setting [6]) was 99% each time.
As to `COc1ccc(CCN2C(=O)c3[nH]nc(-c4cc(Cl)c(C)cc4O)c3C2c2ccccc2F)cc1` (stereo not shown) [MMV396717], the cytotoxicity at 50 µM in test [1] (setting [3]) is 97%. The inhibition at 50 µM in test [2] (setting [5]) and in test [2] (setting [6]) was 101% throughout.
As for `COc1ccc2c(c1)C1(Nc3ccccc3-c3nc4ccccc4n31)C(=O)N2` (stereo not shown) [MMV396749], the cytotoxicity at 50 µM in test [1] (setting [3]) is 88%; in test [1] (setting [4]), 94%. Also, the IC50 was > 50 µM in test [1] and 15.9 µM in test [2]. The inhibition at 50 µM was 45% in test [1], 102% in test [2] (setting [5]), 102% in test [2] (setting [6]) and 98% in test [2] (setting [7]).
Regarding `O=C(NNc1cc(N2CCCC2)nc(N2CCCC2)n1)c1ccccc1` [MMV396770], in test [1] (setting [3]), the cytotoxicity at 50 µM was determined as 29%. The inhibition at 50 µM was 97% in test [2] (setting [5]) and 98% in test [2] (setting [6]).
Take `CC(C)(C)CC(C)(C)NCC(O)COc1ccc(Cl)cc1Cl` (stereo not shown) [MMV396794]: the cytotoxicity at 50 µM in test [1] (setting [3]) turned out to be 99%; in test [1] (setting [4]), 100%. Moreover, the IC50 in test [1] and in test [2] was 15.1 µM in each case. The inhibition at 50 µM in test [1] is 93%; in test [2] (setting [5]) it was 101%; in test [2] (setting [6]) it was 104%; in test [2] (setting [7]), 92%.
Take `COc1ccc(-c2c(C)nn3c(N)c(C#N)cnc23)cc1OC` [MMV396797]: the cytotoxicity at 50 µM in test [1] (setting [3]) amounted to 72%; in test [1] (setting [4]) it was 77%. Also, the IC50 is 25.8 µM in test [1] and 1.63 µM in test [2]. Besides, the inhibition at 50 µM in test [1] was 55%; in test [2] (setting [5]), 104%; in test [2] (setting [6]) it was 106%; in test [2] (setting [7]), 101%.
`Cc1cccc(-n2ncc3c(=O)[nH]c(-n4nc(C)cc4NC(=O)c4cc5ccccc5o4)nc32)c1` [MMV403679]: the cytotoxicity at 50 µM came out at 38% in test [1] (setting [3]) and 47% in test [1] (setting [4]). The inhibition at 50 µM in test [2] (setting [5]) and in test [2] (setting [6]) was 100% throughout.
As to `O=C1C2=C(Nc3ccccc3SC2c2ccccc2)c2ccccc21` (stereo not shown) [MMV645672], in test [1] (setting [3]), the cytotoxicity at 50 µM is 87%. The inhibition at 50 µM in test [2] (setting [5]) and in test [2] (setting [6]) was 104% each time.
For the molecule `CC(C)(C)c1ccc(O)c(CNC2CCCCC2)c1` [MMV665785], the cytotoxicity at 50 µM in test [1] (setting [3]) came to 97%; in test [1] (setting [4]), 99%. The inhibition at 50 µM turned out to be 99% in test [2] (setting [5]) and 102% in test [2] (setting [6]).

Usually inhibition stands for the drop in the measured response relative to a control, in per cent.
